Data published in BindingDB's records for doi:10.1021/jm00100a018 (1992).
Counter-ions that a name gives are not always drawn.

Assays:
[1] = Concentration tested in vitro to inhibit PAF-induced maximum aggregation (PAF-Antagonistic activity) by 50%.
[2] = as above; remark: listed apart in the source

| SMILES | IC50 [1] | IC50 [2] |
| --- | --- | --- |
| COc1cc(CCC(=O)N2CCN(C(=O)c3cc(OC)c(OC)c(OC)c3)CC2)cc(OC)c1OC | 73 µM |  |
| N#CC(c1cccnc1)N1CCN(C(=O)CNC(Cc2ccccc2)c2ccccc2)CC1 (stereo unspecified) | 0.05 µM |  |
| N#CC(c1cccnc1)N1CCN(C(=O)CNCC(c2ccccc2)c2ccccc2)CC1 (stereo unspecified) | 0.22 µM |  |
| N#CC(CN1CCN(C(=O)C(c2ccccc2)c2ccccc2)CC1)c1cccnc1 (stereo unspecified) | 2.3 µM |  |
| COc1cc(C(=O)N2CCN(C(=S)c3cccnc3)CC2)cc(OC)c1OC | 1.3 µM |  |
| CC(c1cccnc1)N1CCN(C(=O)C(c2ccccc2)c2ccccc2)CC1 (stereo unspecified) | 1.2 µM |  |
| N#CC(c1cccc([N+](=O)[O-])c1)N1CCN(C(=O)CC(c2ccccc2)c2ccccc2)CC1 (stereo unspecified) | 11 µM |  |
| CCCCCCCC(=O)N1CCN(C(C#N)c2cccnc2)CC1 (stereo unspecified) | 0.92 µM |  |
| N#CC(c1cccnc1)N1CCN(CCNC(=O)C(c2ccccc2)c2ccccc2)CC1 (stereo unspecified) | 0.036 µM |  |
| N#CC(=C1CCN(C(=O)CC(c2ccccc2)c2ccccc2)CC1)c1cccnc1 | 0.026 µM |  |
| N#CC(c1cccnc1)N1CCN(C(=O)NC(c2ccccc2)c2ccccc2)CC1 (stereo unspecified) | 0.36 µM |  |
| O=C(CC(c1ccccc1)c1ccccc1)N1CCN(Cc2cccnc2)CC1 | 0.52 µM |  |
| O=C(c1cccnc1)N1CCN(C(=O)C(c2ccccc2)c2ccccc2)CC1 | 23 µM |  |
| N#CC1(Nc2cccnc2)CCN(C(=O)CNC(c2ccccc2)c2ccccc2)CC1 | 0.2 µM |  |
| N#CC(c1cncs1)N1CCN(C(=O)CC(c2ccccc2)c2ccccc2)CC1 (stereo unspecified) | 0.021 µM |  |
| N#CC(c1cccnc1)N1CCN(C(=O)Cc2ccccc2)CC1 (stereo unspecified) | 2.7 µM |  |
| COc1cc(CC(=O)N2CCN(C(C#N)c3cccnc3)CC2)cc(OC)c1OC (stereo unspecified) | 0.46 µM |  |
| N#CC(c1cccnc1)C1CCN(C(=O)CNC(c2ccccc2)c2ccccc2)CC1 (stereo unspecified) | 0.024 µM |  |
| N#Cc1cccc(C(C#N)N2CCN(C(=O)CC(c3ccccc3)c3ccccc3)CC2)c1 (stereo unspecified) | 7.4 µM |  |
| N#CC(c1ccncc1)N1CCN(C(=O)CC(O)(c2ccccc2)c2ccccc2)CC1 (stereo unspecified) | 0.0027 µM |  |
| CC(C)(C)C(=O)N1CCN(C(C#N)c2cccnc2)CC1 (stereo unspecified) | 5.2 µM |  |

| SMILES | IC50 [1] | IC50 [2] |
| --- | --- | --- |
| N#CC1(Nc2cccnc2)CCN(C(=O)CC(c2ccccc2)c2ccccc2)CC1 | 0.015 µM |  |
| N#CC(c1cccnc1)N1CCN(C(=O)Cc2ccc3ccccc3c2)CC1 (stereo unspecified) | 0.72 µM |  |
| N#CC(c1cccc(C(F)(F)F)c1)N1CCN(C(=O)CC(c2ccccc2)c2ccccc2)CC1 (stereo unspecified) | 9 µM |  |
| N#CC(c1cccnc1)N1CCN(C(=O)CCCc2ccccc2)CC1 (stereo unspecified) | 0.26 µM |  |
| CC(c1ccccc1)N(C)CC(=O)N1CCN(C(C#N)c2cccnc2)CC1 (stereo unspecified) | 0.24 µM |  |
| N#CC(c1cccnc1)N1CCN(C(=O)C(CCc2ccccc2)c2ccccc2)CC1 (stereo unspecified) | 2.6 µM |  |
| N#CC(c1cccnc1)N1CCN(C(=O)Cc2cccc3ccccc23)CC1 (stereo unspecified) | 0.076 µM |  |
| O=C(C(c1ccccc1)c1ccccc1)N1CCN(Cc2cccnc2)CC1 | 2.6 µM |  |
| N#CC(c1cccnc1)N1CCN(C(=O)C(Cc2ccccc2)c2ccccc2)CC1 (stereo unspecified) | 0.23 µM |  |
| O=C(C(c1ccccc1)c1ccccc1)N1CC[N+]([O-])(Cc2cccnc2)CC1 | 44 µM |  |
| N#CC(c1cccnc1)N1CCN(C(=O)CNCCC(c2ccccc2)c2ccccc2)CC1 (stereo unspecified) | 0.086 µM |  |
| COc1cc(C(=O)N2CCN(C(=O)c3cc(OC)c(OC)c(OC)c3)CC2)cc(OC)c1OC | 9.4 µM |  |
| N#CC(c1cccnc1)N1CCN(C(=O)C(c2ccccc2)c2ccccc2)CC1 (stereo unspecified) | 0.01 µM |  |
| N#CC(c1cccnc1)N1CCN(C(=O)CN(Cc2ccccc2)Cc2ccccc2)CC1 (stereo unspecified) | 0.032 µM |  |
| N#CC(c1cccnc1)N1CCN(C(=O)/C(=C/c2ccccc2)c2ccccc2)CC1 (stereo unspecified) | 0.0075 µM |  |
| N#CC(c1cccnc1)N1CCN(CC(=O)NCCC(c2ccccc2)c2ccccc2)CC1 (stereo unspecified) | 0.24 µM |  |
| CN(CC(=O)N1CCN(C(C#N)c2cccnc2)CC1)C(c1ccccc1)c1ccccc1 (stereo unspecified) | 0.06 µM |  |
| N#CC(c1ccncc1)N1CCN(C(=O)CNC(=O)C(c2ccccc2)c2ccccc2)CC1 (stereo unspecified) | 0.68 µM |  |
| Cn1cccc1C(C#N)N1CCN(C(=O)CC(c2ccccc2)c2ccccc2)CC1 (stereo unspecified) | 25 µM |  |
| CN(CC(=O)N1CCN(C(C#N)c2cccnc2)CC1)c1ccccc1 (stereo unspecified) | 2.8 µM |  |
| CN(C)c1ccc(C(C#N)N2CCN(C(=O)CC(c3ccccc3)c3ccccc3)CC2)cc1 (stereo unspecified) | 210 µM |  |

| SMILES | IC50 [1] | IC50 [2] |
| --- | --- | --- |
| Cn1ccc(C(C#N)N2CCN(C(=O)CC(c3ccccc3)c3ccccc3)CC2)c1 (stereo unspecified) | 2.6 µM |  |
| N#CC(c1cccnc1)C1CCN(C(=O)C(c2ccccc2)c2ccccc2)CC1 (stereo unspecified) | 0.021 µM |  |
| N#CC(c1cccnc1)N1CCN(C(=O)CNc2ccccc2)CC1 (stereo unspecified) | 0.13 µM |  |
| O=C(CC(c1ccccc1)c1ccccc1)N1CCN(C(=O)c2cc[n+]([O-])cc2)CC1 | 1.9 µM |  |
| NC(=O)C(c1cccnc1)N1CCN(C(=O)C(c2ccccc2)c2ccccc2)CC1 (stereo unspecified) | 200 µM |  |
| COc1cc(C(=O)N2CCN(C(=O)c3cccnc3)CC2)cc(OC)c1OC | 5.2 µM |  |
| N#CC(c1cccnc1)N1CCN(CCNC(=O)CC(c2ccccc2)c2ccccc2)CC1 (stereo unspecified) | 5.5 µM |  |
| N#CC(c1cccnc1)N1CCN(CCC(c2ccccc2)c2ccccc2)CC1 (stereo unspecified) | 0.63 µM |  |
| CC(NCC(=O)N1CCN(C(C#N)c2cccnc2)CC1)c1ccccc1 (stereo unspecified) | 0.036 µM |  |
| N#CC(c1cccnc1)N1CCN(C(=O)CN(Cc2ccccc2)c2ccccc2)CC1 (stereo unspecified) | 0.024 µM |  |
| O=C(CC(c1ccccc1)c1ccccc1)N1CCN(C(=O)c2ccncc2)CC1 | 1.9 µM |  |
| CCCCC(=O)N1CCN(C(C#N)c2cccnc2)CC1 (stereo unspecified) | 2.6 µM |  |
| N#CC(c1cccc(Cl)c1)N1CCN(C(=O)CC(c2ccccc2)c2ccccc2)CC1 (stereo unspecified) | 21 µM |  |
| N#CC(c1cccnc1)N1CCN(C(=S)C(c2ccccc2)c2ccccc2)CC1 (stereo unspecified) | 0.023 µM |  |
| N#CC(c1cccnc1)N1CCN(C(=O)/C=C/c2ccccc2)CC1 (stereo unspecified) | 2.5 µM |  |
| Cn1cc(C(C#N)N2CCN(C(=O)CC(c3ccccc3)c3ccccc3)CC2)c2ccccc21 (stereo unspecified) | 5.7 µM |  |
| CC(C#N)(c1cccnc1)N1CCN(C(=O)C(c2ccccc2)c2ccccc2)CC1 (stereo unspecified) | 0.24 µM |  |
| N#CC(c1ccncc1)N1CCN(CCNC(c2ccccc2)c2ccccc2)CC1 (stereo unspecified) | 0.036 µM |  |
| COc1cc(C(=O)N2CCN(C(C#N)c3ccccn3)CC2)cc(OC)c1OC (stereo unspecified) | 44 µM |  |
| N#CC(c1cccnc1)N1CCN(C(=O)CNc2cccc3ccccc23)CC1 (stereo unspecified) | 2.6 µM |  |
| CCCCCCCCCCCCCCCC(=O)N1CCN(C(C#N)c2cccnc2)CC1 (stereo unspecified) | > 200 µM |  |

| SMILES | IC50 [1] | IC50 [2] |
| --- | --- | --- |
| N#CC(c1ccncc1)N1CCN(C(=O)CCNC(c2ccccc2)c2ccccc2)CC1 (stereo unspecified) | 0.055 µM |  |
| N#CC(c1cccnc1)N1CCN(C(=O)Cc2c[nH]c3ccccc23)CC1 (stereo unspecified) | 0.45 µM |  |
| N#CC(c1cccnc1)N1CCN(C(=O)CNCCCc2ccccc2)CC1 (stereo unspecified) | 0.53 µM |  |
| O=C(CC(c1ccccc1)c1ccccc1)N1CCC(Nc2cccnc2)CC1 [3,3-Diphenyl-1-[4-(pyridin-3-ylamino)-piperidin-1-yl]-propan-1-one; dihydrochloride; hydrate] | 0.087 µM |  |
| N#CC(c1cccnc1)N1CCC(OC(=O)CC(c2ccccc2)c2ccccc2)CC1 (stereo unspecified) [3,3-Diphenyl-propionic acid 1-(cyano-pyridin-3-yl-methyl)-piperidin-4-yl ester; dihydrochloride; hydrate] | 2.6 µM |  |
| N#CC(c1cccnc1)N1CCN(C(=O)OCC(c2ccccc2)c2ccccc2)CC1 (stereo unspecified) [4-(Cyano-pyridin-3-yl-methyl)-piperazine-1-carboxylic acid 2,2-diphenyl-ethyl ester; dihydrochloride; hydrate] | 0.026 µM |  |
| N#CC(c1cccnc1)N1CCN(C(=O)c2ccccc2)CC1 (stereo unspecified) [(4-Benzoyl-piperazin-1-yl)-pyridin-3-yl-acetonitrile; dihydrochloride] | 4.8 µM |  |
| COc1cc(C(=O)N2CCN(Cc3cccnc3)CC2)cc(OC)c1OC [(4-Pyridin-3-ylmethyl-piperazin-1-yl)-(3,4,5-trimethoxy-phenyl)-methanone; dihydrochloride; hydrate] | 17 µM |  |
| CN(CCCc1ccccc1)CC(=O)N1CCN(C(C#N)c2cccnc2)CC1 (stereo unspecified) [(4-{2-[Methyl-(3-phenyl-propyl)-amino]-acetyl}-piperazin-1-yl)-pyridin-3-yl-acetonitrile; dihydrochloride; hydrate] | 2.2 µM |  |
| COc1cc(C(=O)N2CCN(C(C#N)c3cccnc3)CC2)cc(OC)c1OC (stereo unspecified) [Pyridin-3-yl-[4-(3,4,5-trimethoxy-benzoyl)-piperazin-1-yl]-acetonitrile; dihydrochloride; hydrate] | 1.9 µM |  |
| COc1cc(CCC(=O)N2CCN(C(C#N)c3cccnc3)CC2)cc(OC)c1OC (stereo unspecified) [Pyridin-3-yl-{4-[3-(3,4,5-trimethoxy-phenyl)-propionyl]-piperazin-1-yl}-acetonitrile; dihydrochloride; hydrate] | 0.4 µM |  |
| CC(C(=O)N1CCN(C(C#N)c2cccnc2)CC1)(c1ccccc1)c1ccccc1 (stereo unspecified) [[4-(2,2-Diphenyl-propionyl)-piperazin-1-yl]-pyridin-3-yl-acetonitrile; dihydrochloride] | 0.0019 µM |  |
| N#CC(c1cccnc1)N1CCN(C(=O)C(Cc2ccccc2)Cc2ccccc2)CC1 (stereo unspecified) [[4-(2-Benzyl-3-phenyl-propionyl)-piperazin-1-yl]-pyridin-3-yl-acetonitrile; dihydrochloride; hydrate] | 0.011 µM |  |
| N#CC(c1cccnc1)N1CCN(C(=O)CNCc2ccccc2)CC1 (stereo unspecified) [[4-(2-Benzylamino-acetyl)-piperazin-1-yl]-pyridin-3-yl-acetonitrile; dihydrochloride; hydrate] | 0.24 µM |  |
| CC(C(=O)N1CCN(C(C#N)c2cccnc2)CC1)c1ccccc1 (stereo unspecified) [[4-(2-Phenyl-propionyl)-piperazin-1-yl]-pyridin-3-yl-acetonitrile; dihydrochloride] | 0.021 µM |  |
| N#CC(c1ccncc1)N1CCN(C(=O)CC(c2ccccc2)c2ccccc2)CC1 (stereo unspecified) [[4-(3,3-Diphenyl-propionyl)-piperazin-1-yl]-pyridin-4-yl-acetonitrile; dihydrochloride] | 0.051 µM |  |
| N#CC(c1cccnc1)N1CCN(C(=O)CCc2ccccc2)CC1 (stereo unspecified) [[4-(3-Phenyl-propionyl)-piperazin-1-yl]-pyridin-3-yl-acetonitrile; dihydrochloride; hydrate] | 0.52 µM |  |
| N#CC(c1cccnc1)N1CCN(C(=O)c2ccc3ccccc3c2)CC1 (stereo unspecified) [[4-(Naphthalene-2-carbonyl)-piperazin-1-yl]-pyridin-3-yl-acetonitrile; dihydrochloride] |  | 25 µM |
